These are literature values, as cited in US12728162B2, “Methods of treating lung cancer with a PD-1 axis binding antagonist, a platinum agent, and a topoisomerase II inhibitor” (Genentech, Inc., priority 2018, dated 2026).

Molecules are shown by their SMILES.

For the compound `[NH3+][Pt-2]1([NH3+])[O]C(=O)C2(CCC2)C(=O)[O]1` [Carboplatin, platinum, diammine [1,1-cyclobutanedicarboxylato (2-)-O,O′]—, (SP-4-2)], for the setting “ethanol, acetone, and dimethylacetamide”, the “solubility in organic solvents” value is on record as “virtually insoluble”. Also, the solubility in water entry (water) is on record as “approximately 14 mg/mL”.
